Measurements: ChEMBL document CHEMBL1153130, “Discovery of dipiperidines as new antitubercular agents” (Bioorg Med Chem Lett, 2010)
Converted amounts (≈) assume the structure as drawn.

Key:
[1] = test system: HepG2; experiment: Cytotoxicity against human HepG2 cells after 72 hrs by MTS assay; format: cell-based; conditions: HepG2, 72 h
[2] = test system: Mycobacterium tuberculosis; experiment: Antitubercular activity against Mycobacterium tuberculosis H37Rv after 10 to 14 days by broth microdilution assay; format: functional
[3] = test system: Mycobacterium tuberculosis; experiment: Antitubercular activity against Mycobacterium tuberculosis H37Rv assessed as inhibition of cell wall biosynthesis after 10 to 14 days by bioluminescence assay relative to ethambutol; format: functional; parameters: scale not given: the % may be the effect or the level left
[4] = Selectivity index, IC50 for human HepG2 cells to MIC for Mycobacterium tuberculosis H37Rv ATCC 25618; format: functional
[5] = test system: Mycobacterium tuberculosis; experiment: Antitubercular activity against Mycobacterium tuberculosis H37Rv after 10 to 14 days by BACTEC assay; format: functional

SMILES | IC50 [1] [µM] | MIC [2] [µM] | Activity [3] [%] | Selectivity Index [4] | MIC [5] [µM]
OC1CCN(CC2CCN(C3C4CC5CC(C4)CC3C5)CC2)CC1 (centres undefined) | 25 | 31.2 (≈ 10.4 µg/mL) | 102 | 0.8 | –
OC1CCN(CC2CCN(CC34CC5CC(CC(C5)C3)C4)CC2)CC1 | 56 | 6.25 (≈ 2.17 µg/mL) | 59 | 8.96 | 15.6 (≈ 5.41 µg/mL)
OC1CCN(CC2CCN(CC(c3ccccc3)c3ccccc3)CC2)CC1 | 30 | 7.8 (≈ 2.95 µg/mL) | 125 | 3.85 | 16 (≈ 6.06 µg/mL)
